Values of other authors, collected in patent US7276253B2, “Stable drug form for oral administration with benzimidazole derivatives as active ingredient and process for the preparation thereof” (AstraZeneca AB, priority 1996, dated 2007).

Conditions: aqueous solution at pH values under 4

COc1ccc2[nH]c([S+]([O-])Cc3ncc(C)c(OC)c3C)nc2c1 (stereo not shown) [Omeprazole, 5-methoxy-2(((4-methoxy-3,5-dimethyl-2-pyridyl)methyl)-sulfinyl)-1H-benzimidazole]
half-life: less than ten
